In paper PMC8456950, “Structure‐Guided Design of G‐Protein‐Coupled Receptor Polypharmacology” (Angewandte Chemie (International Ed. in English), 2021):

Assays:
Human A2AAR = Human A2AAR (Homo sapiens, UniProt P29274); assay: A2AAR competition binding ([3H]-ZM241385 displacement); set-up: expressed in transfected cells; host or cells: HeLa-A2AAR cell line (membranes); conditions: for A2AAR % displacement at 10 μM: 10 μM compound, mean±SEM of three experiments; for Ki: radioligand displacement, mean±SEM of three experiments in duplicate, read-out: A2AAR binding affinity Ki
Chain of Human A2AAR (P29274 whole entry): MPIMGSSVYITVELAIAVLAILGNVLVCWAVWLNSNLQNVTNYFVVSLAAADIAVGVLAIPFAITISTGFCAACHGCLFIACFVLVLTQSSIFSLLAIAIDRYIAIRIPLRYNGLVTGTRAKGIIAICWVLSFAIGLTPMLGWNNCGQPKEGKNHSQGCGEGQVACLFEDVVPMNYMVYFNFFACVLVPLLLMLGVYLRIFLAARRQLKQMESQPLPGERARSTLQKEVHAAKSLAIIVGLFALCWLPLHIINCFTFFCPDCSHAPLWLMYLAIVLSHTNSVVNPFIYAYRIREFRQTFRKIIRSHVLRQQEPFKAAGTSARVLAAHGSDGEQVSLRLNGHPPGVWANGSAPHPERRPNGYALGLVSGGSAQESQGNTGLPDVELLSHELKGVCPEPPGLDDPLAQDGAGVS
Description: Binding assays. Human A2AAR competition binding experiments were carried out in multiscreen GF/C 96-well plates (Millipore, Madrid, Spain) pretreated with binding buffer (50 mM Tris-HCl, 1 mM EDTA, 10 mM MgCl2, 2 U/ml adenosine deaminase, pH=7.4).
Each well contained 5 µg of membranes from a He l a-A2AAR cell line (protein concentration […]
compound studied. Non-specific binding was determined in the presence of 50 µM NE C A (Sigma E2387). The reaction mixture (200 µl/well) was incubated at 25 °C for 30 min, after which it was filtered and washed four times with 250 µl wash buffer (50 mM Tris -HCl, 1 mM EDTA, 10 mM MgCl 2, pH=7. 4) before measuring in a microplate beta scintillation counter (Microbeta Trilux, PerkinElmer, Madrid, Spain). Three independent experiments were carried out to calculate K i values (n=3). […]

Human D2R [1] = target: T1, Human D2R (Homo sapiens, UniProt P14416); assay: D2R competition binding ([3H]-spiperone displacement); conditions: for D2R % displacement at 10 μM: 10 μM compound, mean±SEM of three experiments; for Ki: read-out: D2R binding affinity Ki
T1 construct: expressed in transfected cells; host or cells: CHO-D2R #S20 cell line (membranes)
T1 sequence (P14416 whole entry): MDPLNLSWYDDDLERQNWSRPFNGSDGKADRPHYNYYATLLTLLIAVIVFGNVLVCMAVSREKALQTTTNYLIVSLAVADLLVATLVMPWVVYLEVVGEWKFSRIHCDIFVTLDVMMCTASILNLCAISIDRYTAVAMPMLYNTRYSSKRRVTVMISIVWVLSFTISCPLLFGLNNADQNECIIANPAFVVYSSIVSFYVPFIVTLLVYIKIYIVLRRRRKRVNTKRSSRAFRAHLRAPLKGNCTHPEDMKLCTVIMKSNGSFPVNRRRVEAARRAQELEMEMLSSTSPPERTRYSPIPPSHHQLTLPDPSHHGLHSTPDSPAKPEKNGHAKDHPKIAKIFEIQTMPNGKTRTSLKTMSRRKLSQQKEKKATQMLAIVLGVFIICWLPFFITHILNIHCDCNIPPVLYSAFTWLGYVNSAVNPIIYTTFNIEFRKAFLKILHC
Description: Human D2R competition binding experiments w ere carried out in polypropylene 96-well plates. Each well contained 10 µg of membranes from a CHO-D2R #S20 cell line (protein concentration of 3241 µg/ml), 0.4 nM [3H]-spiperone (80. 2 Ci/mmol, 1 mCi/ml, Perkin […]
The reaction mixture (250 µl/well) was incubated at 25°C for 120 min , after which 200 µL was transferred to a GF/C 96 -well plate (Millipore, Madrid, Spain) pretreated with 0. 5% of PEI and treated with binding buffer (50 mM Tris-HCl, 1 mM EDTA, 5 mM MgCl2, 5 mM KCl, 120 mM NaCl, pH=7.4). The […]
samples were filtered and washed four times with 250 µl wash buffer (50 mM Tris-HCl, 0.9% NaCl, pH=7.4) before measuring in a microplate beta scintillation counter (Microbeta Trilux, PerkinElmer, Madrid, Spain). Three independent exp eriments were carried out to calculate Ki values (n=3). […]

Human D2R [2] = target: T1, Human D2R; assay: D2R functional cAMP (HTRF) assay in CHO-D2 #S20 cells; assay type: cell-based; conditions: for EC50: cAMP HTRF, CHO-D2 cells, forskolin 10 µM, mean±SEM n=3; for Emax: relative to the maximal effect of dopamine
Description: KB=I C50/(1+([NECA]/EC50 NECA)).
Functional assays for the human D2R were carried out in a CHO-D2 #S20 cell line. 5,000 cells were seed ed in 30 µl of Opti-ME M (Invitrogen 11058) and 500µM IBMX (Sigma 17018) on a 96-well isoplate (PerkinElmer 6005030). The studied compounds wer e then added and incubated for 10 min at 37 °C with gentle stirring (150 rpm). Then, 10 µM […]
forskolin (Sigma 17018) was added and incubated for 5 min at 37 °C with gentle stirring (150 rpm). Reagents (#CISBIO 62AM4PEC) were added and, after incubation for 60 min at rt with gentle stirring (90 rpm) and protected from light, homogeneous time resolved fluorescence (HTRF, λEx: 320 nm; λEm: 620-665 nm) from each well was measured using a Tecan Infinite M1000 Pro. Data were normalized to the maximum effect of dopamine. EC50 and Ema x values were obtained after fitting the d ata to a four -parameter logistic equatio n using Prism V2. 1 (Graph Pad Inc, Chicago, USA) . […]

Human A1AR = target: T2, Human A1AR (Homo sapiens, UniProt P30542); assay: A1AR competition binding ([3H]-DPCPX); conditions: 10 µM compound, n=2
T2 construct: expressed in transfected cells; host or cells: CHO-A1AR cell line (membranes)
T2 sequence (P30542 1-326): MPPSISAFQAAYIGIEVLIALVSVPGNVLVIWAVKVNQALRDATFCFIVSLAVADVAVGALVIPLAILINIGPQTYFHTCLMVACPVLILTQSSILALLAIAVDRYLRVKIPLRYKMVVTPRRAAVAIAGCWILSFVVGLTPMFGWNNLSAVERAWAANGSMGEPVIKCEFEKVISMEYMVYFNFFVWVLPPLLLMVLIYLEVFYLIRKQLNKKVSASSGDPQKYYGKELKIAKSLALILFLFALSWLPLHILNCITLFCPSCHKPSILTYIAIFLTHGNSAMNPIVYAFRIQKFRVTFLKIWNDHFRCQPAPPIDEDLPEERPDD
Description: Human A1AR competition binding experiments were carried out in multiscreen GF/C 96 -well plates (Millipore, Madrid, Spain) pretreated with assay buffer ( 20 mM Hepes, 100 mM NaCl, 10 mM MgCl2, 2 U/ml adeno sine deamina se, pH=7.4). Each well contained 5 µg of membranes from a CHO-A1AR cell line, 1 nM [3H]-DPCPX (137 Ci/mmol, 1 mCi/Ml, Perkin Elmer NET974001MC), and the compound studied. Non-specific binding was determined in the presence of R-PIA 10 µM (Sigma P4532). The reaction mixture (200 µl/well) was incubated at 25°C for 60 min. The samples were then filtered and washed four times with 250 µl wash buffer (20 mM Hepes, 100 mM NaCl, 10 mM MgCl2, pH=7.4) before measuring in a microplate beta scintillati on counter (Microbeta Trilux, PerkinElmer, Madrid, Spain). Two independent experiments were carried out to calculate K i values (n=2). […]

[3] = radioligand displacement, mean±SEM of three experiments in duplicate

Cc1cccc2sc(NC(=O)CCCCN(C)C3Cc4ccccc4C3)nc12 [Compound 2]
A2AAR % displacement at 10 μM (Human A2AAR): significant radioligand displacement | Ki (Human A2AAR): 1200 ± 100 nM | D2R % displacement at 10 μM (Human D2R [1]): significant radioligand displacement | D2R binding affinity Ki (Human D2R [1]; [3]): submicromolar | Ki (Human D2R [1]; [3]): 900 ± 80 nM | EC50 (Human D2R [2]): 9700 ± 3800 nM | Emax (Human D2R [2]): 93 ± 12%

CN(CCCCNc1nc(-c2ccccc2)nc2[nH]ccc12)C1Cc2ccccc2C1 [Compound 3]
A2AAR % displacement at 10 μM (Human A2AAR): significant radioligand displacement | Ki (Human A2AAR): 5600 ± 900 nM | D2R % displacement at 10 μM (Human D2R [1]): significant radioligand displacement | Ki (Human D2R [1]; [3]): 290 ± 30 nM

CCOc1cc(C)nc(NCCCCN(C)C2Cc3ccccc3C2)n1 [Compound 4]
A2AAR % displacement at 10 μM (Human A2AAR): significant radioligand displacement | Ki (Human A2AAR): 8400 ± 1300 nM | D2R % displacement at 10 μM (Human D2R [1]): significant radioligand displacement | Ki (Human D2R [1]; [3]): 330 ± 30 nM

Cc1nc(NC(=O)CCCCN(C)C2Cc3ccccc3C2)sc1C [Compound 5]
A2AAR % displacement at 10 μM (Human A2AAR): 3 ± 2% | Ki (Human D2R [1]; [3]): 680 ± 50 nM

Cc1ccc(NC(=O)CCCCN(C)C2Cc3ccccc3C2)nc1 [Compound 6]
A2AAR % displacement at 10 μM (Human A2AAR): 7 ± 4% | Ki (Human D2R [1]; [3]): 670 ± 60 nM

CN(C)c1ncnc(NC(=O)CCCCN(C)C2Cc3ccccc3C2)n1 [Compound 7]
A2AAR % displacement at 10 μM (Human A2AAR): 4 ± 3%

CN(CCCCC(=O)Nc1nc2ncccc2[nH]1)C1Cc2ccccc2C1 [Compound 8]
A2AAR % displacement at 10 μM (Human A2AAR): 5 ± 1% | Ki (Human D2R [1]; [3]): 80 ± 10 nM

CN(CCCCNc1ncc(-c2ccccc2)o1)C1Cc2ccccc2C1 [Compound 9]
A2AAR % displacement at 10 μM (Human A2AAR): 9 ± 6% | Ki (Human D2R [1]; [3]): 290 ± 30 nM

CN(CCCCNc1ncc2ccn(C)c2n1)C1Cc2ccccc2C1 [Compound 10]
A2AAR % displacement at 10 μM (Human A2AAR): 8 ± 3%

Cc1cc(C)n2nc(NCCCCN(C)C3Cc4ccccc4C3)nc2n1 [Compound 11]
A2AAR % displacement at 10 μM (Human A2AAR): 4 ± 4% | Ki (Human D2R [1]; [3]): 430 ± 50 nM

CCCCCC(=O)Nc1nc2c(C)cccc2s1 [Compound 12]
Ki (Human A2AAR): 8100 ± 3800 nM | D2R % displacement at 10 μM (Human D2R [1]): 1±2%

CNC(=O)CCCCN(C)C1Cc2ccccc2C1 [Compound 13]
A2AAR % displacement at 10 μM (Human A2AAR): 5±2% | activity for the A2AAR (in words) (Human A2AAR; binding assay): no activity | Ki (Human D2R [1]; [3]): 5000 ± 1300 nM

COc1cccc2sc(NC(=O)CCCCN(C)C3Cc4ccccc4C3)nc12 [Compound 18]
Ki (Human A2AAR): 370 ± 50 nM | Ki (Human D2R [1]; [3]): 390 ± 30 nM | A1AR % displacement at 10 µM (Human A1AR): 18 ± 3% | EC50 (Human D2R [2]): 26000 ± 14000 nM | Emax (Human D2R [2]): 89 ± 18%

CN(CCCCC(=O)Nc1nc2c(Cl)cccc2s1)C1Cc2ccccc2C1 [Compound 19]
Ki (Human A2AAR): 420 ± 40 nM | Ki (Human D2R [1]; [3]): 510 ± 50 nM | EC50 (Human D2R [2]): 23000 ± 9000 nM | Emax (Human D2R [2]): 82 ± 22%

CCN(CCCCC(=O)Nc1nc2c(OC)cccc2s1)C1Cc2ccccc2C1 [Compound 21]
Ki (Human A2AAR): 630 ± 80 nM | Ki (Human D2R [1]; [3]): 330 ± 20 nM

CCCN(CCCCC(=O)Nc1nc2c(F)cccc2s1)C1Cc2ccccc2C1 [Compound 23]
Ki (Human A2AAR): 2900 ± 600 nM | Ki (Human D2R [1]; [3]): 200 ± 20 nM

CCCN(CCCCC(=O)Nc1nc2c(CC)cccc2s1)C1Cc2ccccc2C1 [Compound 24]
Ki (Human A2AAR): 11000 ± 3000 nM | Ki (Human D2R [1]; [3]): 820 ± 180 nM

CCCN(CCCCC(=O)Nc1nc2c(C)cccc2s1)C1Cc2ccccc2C1 [Compound 25]
Ki (Human A2AAR): 990 ± 240 nM | Ki (Human D2R [1]; [3]): 340 nM | EC50 (Human D2R [2]): 750 ± 70 nM | Emax (Human D2R [2]): 81 ± 5%

CCCN(CCCCC(=O)Nc1nc2c(OC)ccc(Cl)c2s1)C1Cc2ccccc2C1 [Compound 28]
Ki (Human A2AAR): 470 ± 110 nM | Ki (Human D2R [1]; [3]): 900 ± 100 nM | EC50 (Human D2R [2]): 1200 ± 200 nM | Emax (Human D2R [2]): 104 ± 6%

Cc1cccc2sc(NC(=O)CCCN(C)C3Cc4ccccc4C3)nc12 [Compound 31]
Ki (Human A2AAR): 1600 ± 300 nM | Ki (Human D2R [1]; [3]): 630 ± 50 nM | EC50 (Human D2R [2]): 5200 ± 2600 nM | Emax (Human D2R [2]): 88 ± 13%

CN(CCCC(=O)Nc1nc2c(Br)cccc2s1)C1Cc2ccccc2C1 [Compound 32]
Ki (Human A2AAR): 670 ± 110 nM | Ki (Human D2R [1]; [3]): 880 ± 110 nM | EC50 (Human D2R [2]): 1200 ± 300 nM | Emax (Human D2R [2]): 51 ± 4%

CN(CCC(=O)Nc1nc2c(Br)cccc2s1)C1Cc2ccccc2C1 [Compound 33]
Ki (Human A2AAR): 1100 ± 200 nM | Ki (Human D2R [1]; [3]): 2200 ± 300 nM | EC50 (Human D2R [2]): 5000 ± 2800 nM | Emax (Human D2R [2]): 81 ± 6%

COc1ccc(OC)c2sc(NC(=O)CCN(C)C3Cc4ccccc4C3)nc12 [Compound 37]
Ki (Human A2AAR): 300 ± 50 nM | Ki (Human D2R [1]; [3]): 1300 ± 200 nM | EC50 (Human D2R [2]): 31000 ± 12000 nM | Emax (Human D2R [2]): 103 ± 3%

CCN(CCC(=O)Nc1nc2c(OC)ccc(C)c2s1)C1Cc2ccccc2C1 [Compound 39]
Ki (Human A2AAR): 1300 ± 200 nM | Ki (Human D2R [1]; [3]): 2000 ± 300 nM | EC50 (Human D2R [2]): 28000 ± 9000 nM | Emax (Human D2R [2]): 107 ± 6%

CCN(CCC(=O)Nc1nc2c(OC)ccc(OC)c2s1)C1Cc2ccccc2C1 [Compound 40]
Ki (Human A2AAR): 720 ± 70 nM | Ki (Human D2R [1]; [3]): 1900 ± 300 nM | EC50 (Human D2R [2]): 8900 ± 2700 nM | Emax (Human D2R [2]): 105 ± 5%
